By half-life is commonly meant how long it takes for the measured level to halve. High values mean slow decline, low ones rapid decline.

In one data set the target is Insulin Receptor (Homo sapiens, UniProt P06213). Kind of data set: Insulin receptor binding assay (competition, scintillation proximity). To be noted: compared with native insulin. In general terms: In a scintillation proximity assay essentially only radioactivity close to the scintillant gives light.
The next data set in a line: physchem. Conditions: buffer.
Data set [1] can be described thus: Rate of model dipeptide cleavage from model hexapeptide in PBS (HPLC). Conditions: buffer.
Procedure: (§1) The solution was incubated at 37° C. […] The dipeptide cleavage was quenched by lowering the pH with an equal volume of 0.1% TFA. The rate of cleavage was qualitatively monitored by LC-MS and quantitatively studied by HPLC. The retention time and relative peak area for the prodrug and the parent model peptide were quantified using Peak Simple Chromatography software.
(§2) The flow rate was 1 ml/min. Solvent A contained 0.1% TFA in distilled water, and solvent B contained 0.1% TFA in 90% CH3CN. A linear gradient was employed (0% to 30% B in 10 minutes). The data were collected and analyzed using Peak Simple Chromatography software.
(§3) The rate of cleavage was determined for the respective propeptides. The concentrations of the propeptides and the model parent peptide were determined by their respective peak areas. The first order dissociation rate constants of the prodrugs were determined by plotting the logarithm of the concentration of the prodrug at various time intervals. The slope of this plot provides the rate constant ‘k’.
The nature of the next data set: in vitro. Format: in vitro ADME. To be noted: plasma.
Data set [2] can be described thus: Dipeptide half life on IGF1 dipeptide extended (p-NH2-F)A19 amide derivatives in PBS (HPLC). It counts as physicochemical. Conditions: buffer, pH 7.4. Here is the method:
IGF-1 peptides was measured to determine the impact of the peptide sequence or heteroduplex on the dipeptide cleavage.
Accordingly, the IGF1A chain alone was determined to be a good model for the study of pro-drug half life on IGF1 B:A (Y^B16L^B17) derivative peptides. […] For simplicity, prodrug half lives were determined using only the IGF1 A chain in the absence of the B chain. The half lives of each propeptide was determined as described in Example 5.
The IGF^B16B17 derivative peptide prodrugs were incubated in PBS, pH 7.4 at 37° C. and at predetermined time intervals an aliquot was taken and further degradation was quenched with 0.1% TFA and the aliquot was subjected to analytical HPLC analysis. Peaks a and b, representing the prodrug and active forms of the IGF^B16B17 derivative peptide were identified with LC-MS and quantified by integration of peak area an HPLC. FIGS. 9A-9C show the output of an HPLC analysis of the degradation of the IGF^B16B17 derivativepeptide prodrug: IGF1A(Ala)^6,7,11,20(Aib-Pro-pNH-F)^19. Aliquots were taken at 20 minutes (FIG. 9A), 81 minutes (FIG. 9B) and 120 minutes (FIG. 9C) after beginning the incubation of the prodrug in PBS.

A further data set concerns the target human IGF-1 receptor (human, UniProt P08069 31-1367). Description: cell-based or functional assay.

Non-standard residues stand in square brackets, D forms with d. Residues, ends and D or L forms follow the SMILES beside them. Groups on a side chain read outwards from the residue. No end group written: not given here. Phe(4-NH2) = Nc1ccc(C[C@H](N)C(=O)O)cc1; Aze = O=C(O)[C@@H]1CCN1; Nleu = CC(C)CNCC(=O)O; Aib = CC(C)(N)C(=O)O

Chain of Insulin Receptor (P06213 28-758 limits assumed): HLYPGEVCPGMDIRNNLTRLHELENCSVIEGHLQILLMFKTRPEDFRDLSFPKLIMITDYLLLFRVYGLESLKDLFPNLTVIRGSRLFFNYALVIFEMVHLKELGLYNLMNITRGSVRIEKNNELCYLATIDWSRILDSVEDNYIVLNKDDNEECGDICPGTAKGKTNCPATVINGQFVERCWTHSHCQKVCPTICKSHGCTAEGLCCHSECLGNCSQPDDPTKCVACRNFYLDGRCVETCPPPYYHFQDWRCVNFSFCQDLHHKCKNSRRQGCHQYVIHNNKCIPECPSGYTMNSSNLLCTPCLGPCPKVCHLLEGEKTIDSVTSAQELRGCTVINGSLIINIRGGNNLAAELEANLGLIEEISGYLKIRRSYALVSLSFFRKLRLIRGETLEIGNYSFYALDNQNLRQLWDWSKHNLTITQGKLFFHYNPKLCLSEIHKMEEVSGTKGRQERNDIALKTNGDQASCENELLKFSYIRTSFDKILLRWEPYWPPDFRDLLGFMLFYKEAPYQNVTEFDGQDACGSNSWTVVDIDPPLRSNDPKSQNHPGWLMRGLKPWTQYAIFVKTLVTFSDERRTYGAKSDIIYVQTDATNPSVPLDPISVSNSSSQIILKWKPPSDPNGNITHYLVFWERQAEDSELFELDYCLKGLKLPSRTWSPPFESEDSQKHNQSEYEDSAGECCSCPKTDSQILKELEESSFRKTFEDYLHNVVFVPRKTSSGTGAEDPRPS
Chain of Insulin Receptor (P06213 763-1382 partner limits assumed): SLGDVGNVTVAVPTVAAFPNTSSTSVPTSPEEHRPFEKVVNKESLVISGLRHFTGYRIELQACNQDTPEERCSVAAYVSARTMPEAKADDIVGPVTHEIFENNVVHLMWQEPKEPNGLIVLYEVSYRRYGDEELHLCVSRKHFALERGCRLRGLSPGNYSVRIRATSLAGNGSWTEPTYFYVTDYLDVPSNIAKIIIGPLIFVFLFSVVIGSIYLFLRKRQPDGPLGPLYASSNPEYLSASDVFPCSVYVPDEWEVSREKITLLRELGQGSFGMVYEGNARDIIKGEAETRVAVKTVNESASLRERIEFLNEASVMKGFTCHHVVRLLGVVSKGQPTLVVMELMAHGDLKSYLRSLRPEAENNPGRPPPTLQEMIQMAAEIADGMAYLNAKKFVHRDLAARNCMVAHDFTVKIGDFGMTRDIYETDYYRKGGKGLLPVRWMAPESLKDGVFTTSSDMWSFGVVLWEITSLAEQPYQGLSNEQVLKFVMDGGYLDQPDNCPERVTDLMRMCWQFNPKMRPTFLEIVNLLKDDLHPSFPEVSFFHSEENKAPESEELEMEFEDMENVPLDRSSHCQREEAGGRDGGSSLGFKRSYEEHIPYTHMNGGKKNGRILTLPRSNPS
Procedure for physchem: as §1, §2, §3

With `CC[C@H](C)[C@H](NC(=O)CNC(=O)[C@@H]1CCCN1C(=O)[C@H](C)N)C(=O)N[C@H](C(=O)N[C@@H](CC(=O)O)C(=O)N[C@@H](CCC(=O)O)C(=O)N[C@H]1CSSC[C@@H]2NC(=O)[C@H](CO)NC(=O)[C@H](CCCNC(=N)N)NC(=O)[C@H](Cc3ccccc3)NC(=O)[C@H](CSSC[C@H](NC(=O)[C@H](CC(C)C)NC(=O)[C@@H](NC(=O)[C@H](CCC(=O)O)NC(=O)[C@@H]3CCCN3C(=O)CN)[C@@H](C)O)C(=O)NCC(=O)N[C@@H](C)C(=O)N[C@@H](CCC(=O)O)C(=O)N[C@@H](CC(C)C)C(=O)N[C@@H](C(C)C)C(=O)N[C@@H](CC(=O)O)C(=O)N[C@@H](C)C(=O)N[C@@H](CC(C)C)C(=O)N[C@@H](Cc3ccc(O)cc3)C(=O)N[C@@H](CC(C)C)C(=O)N[C@@H](C(C)C)C(=O)N[C@H](C(=O)NCC(=O)N[C@@H](CC(=O)O)C(=O)N[C@@H](CCCNC(=N)N)C(=O)NCC(=O)N[C@@H](Cc3ccccc3)C(=O)N[C@@H](Cc3ccc(O)cc3)C(=O)N[C@@H](Cc3ccccc3)C(=O)N[C@@H](CC(N)=O)C(=O)N[C@@H](CCCCN)C(=O)N3CCC[C@H]3C(=O)N[C@H](C(N)=O)[C@@H](C)O)CSSC[C@@H](C(=O)N[C@@H](C)C(N)=O)NC(=O)[C@H](Cc3ccc(O)cc3)NC(=O)[C@H](CCSC)NC(=O)[C@H](CCC(=O)O)NC(=O)[C@H](CC(C)C)NC(=O)[C@H](CCCNC(=N)N)NC(=O)[C@H](CCCNC(=N)N)NC(=O)[C@H](CC(C)C)NC(=O)[C@H](CC(=O)O)NC2=O)NC1=O)C(C)C` [IGF1(Y^B16L^B17)(AlaPro)^A-1,0], at Insulin Receptor, the “insulin receptor binding, in words” value is “substantially reduced affinity for the insulin receptor”.

As for `C[C@@H](O)[C@H](NC(=O)CNC(=O)[C@H](CCCNC(=N)N)NC(=O)[C@H](CO)NC(=O)[C@H](Cc1c[nH]cn1)NC(=O)[C@@H]1CCN1C(=O)C(C)(C)N)C(=O)N[C@@H](Cc1ccccc1)C(N)=O` [Compound 26] (H-[Aib][Aze]HSRGTF-NH2), the half-life at 1 mg/ml in the data set “physchem” is over 500 h.

Regarding `C[C@@H](O)[C@H](NC(=O)CNC(=O)[C@H](CCCNC(=N)N)NC(=O)[C@H](CO)NC(=O)[C@H](Cc1c[nH]cn1)NC(=O)[C@H](Cc1ccccc1)N(C)C(=O)[C@H](N)CCCCN)C(=O)N[C@@H](Cc1ccccc1)C(N)=O` [Compound 32], the half-life at 1 mg/ml in data set [1] is 57 h.

In turn, `C[C@@H](O)[C@H](NC(=O)CNC(=O)[C@H](CCCNC(=N)N)NC(=O)[C@H](CO)NC(=O)[C@H](Cc1c[nH]cn1)NC(=O)[C@H](C)N(C)C(=O)[C@H](N)CCCCN)C(=O)N[C@@H](Cc1ccccc1)C(N)=O` [Compound 31] showed a half-life at 1 mg/ml in data set [1] of 14 h. Compared with the last molecule, the half-life at 1 mg/ml is about 4.1-fold lower.

Turning to `CC[C@H](C)[C@H](NC(=O)CN)C(=O)N[C@H](C(=O)N[C@@H](CC(=O)O)C(=O)N[C@@H](CCC(=O)O)C(=O)N[C@@H](C)C(=O)N[C@@H](C)C(=O)N[C@@H](Cc1ccccc1)C(=O)N[C@@H](CCCNC(=N)N)C(=O)N[C@@H](CO)C(=O)N[C@@H](C)C(=O)N[C@@H](CC(=O)O)C(=O)N[C@@H](CC(C)C)C(=O)N[C@@H](CCCNC(=N)N)C(=O)N[C@@H](CCCNC(=N)N)C(=O)N[C@@H](CC(C)C)C(=O)N[C@@H](CCC(=O)O)C(=O)N[C@@H](CCSC)C(=O)N[C@@H](Cc1ccc(NC(=O)CN(CC(C)C)C(=O)[C@H](N)CCCCN)cc1)C(=O)N[C@@H](C)C(=O)N[C@@H](C)C(N)=O)C(C)C` [dK N-isobutyl Gly] (H-GIVDEAAFRSADLRRLEM[Phe(4-NH2)]([Nleu-dK])AA-NH2), the half-life was 4.1 h in the data set “in vitro” and 4.4 h in data set [2].

B1: IGF-1 A (H8 A9 N21):B(H5D10Y16L17 A22) DPI A-COOH (ligand)
chain 1: GIVDECCHASCDLRRLEMYCN-OH
chain 2: GPEHLCGADLVDALYLVCGDAGFY
modifications: not fully specified (bridges); cysteine pairing not given here
Consider B1, for which the “% IGF” value with human IGF-1 receptor worked out at 7.7%.

The record behind these values is patent US20110245164A1 (INDIANA UNIVERSITY RESEARCH AND TECHNOLOGY, published 2011).
